Measurements from US12605541B2, “Stabilized anti-cancer cold atmospheric plasma (CAP)-stimulated media and methods for preparing and using same” (The George Washington University, priority 2015, dated 2026).
Like-named read-outs stand apart in the source and are kept apart here.

Experiments:
[1] = for effect of the appearance of the component in DMEM on H2O2 during storage: 3 days of storage at −25° C., FIG. 5d; for effect of the presence of the component in DMEM on H202 in PSM during storage: three days of storage at 8° C., FIG. 3b; for effect of the component on H2O2 in CAP-stimulated PBS during storage: at 8° C. (FIG. 3a) (so in the source)
Procedure: The general research strategy described herein is illustrated in FIG. 1b. I mL of PSM was made by the vertical irradiation on the medium in a well on a 12-well plate. Then, the PSM was transferred to a 1.5 mL centrifuge tube by pipette. The centrifuge tubes were stored in refrigerators with different internal temperatures (8° C. and −25° C.) for 3 days. Additionally, some centrifuge tubes were stored at 22° C., for the investigation of PSM degradation at room temperature. Ultimately, the PSM was either transferred to culture the seeded cancer cells in a 96-well plate or transferred into a black wall 96-well plate to measure for H2O2 concentration. Because PBS is not suitable for cell culture, the protocols used to transfer the CAP-stimulated PBS are slightly different from those used to transfer the CAP-stimulated DMEM.
The protocols to prepare PSM are the same among different experiments. 1 mL of PBS or DMEM (or modified DMEM, such as cysteine/methionine-free DMEM) in a well on a Coming™ Falcon™ 12-well plate was treated by CAP for 1 or 2 minutes. The gap between the end of dielectric plasma tube and the bottom of 12-well plate was 3 cm.
H2O2 containing PBS and H2O2 containing DMEM were prepared by adding 30 wt¾ H2O2 solution to PBS and DMEM, respectively.
The amino acid(s) containing PBS, calcium containing PBS, magnesium containing PBS, glucose containing PBS, phenol red containing PBS, and amino acid(s) containing DMEM were prepared by adding and dissolving specific amino acid(s), calcium chloride solution, magnesium chloride solution, D-glucose, phenol red solution or an amino acid derivative (such as 3-nitro-L-tyrosine) in PBS and DMEM, respectively. With the exception of PBS and DMEM, the added components were purchased from Sigma Aldrich.
50 μL of CAP-stimulated medium or PBS to be analyzed for H2O2 concentration was transferred to a well on a black-wall Coming™ Falcon™ 96-well clear bottom plate in triplicate. Subsequently, according to standard protocols provided by Sigma Aldrich (St. Louis, MO), the H2O2 concentration in the cold plasma-stimulated medium was measured as follows. First, 50 μL of red peroxidase substrate stock solution, 200 μL of peroxidase stock solution, and 4.75 ml of assay buffer were mixed to prepare H2O2 probe solution. 50 μL of probe solution was then added in the black 96-well plate and mixed with 50 μL of the CAP-stimulated medium or PBS. After 30 min of storage at the room temperature, with protecting from light, a Hybrid Technology HI microplate reader (BioTek Instruments, Winooski, VT) was used to measure the fluorescence with an excitation wavelength at 540 nm and an emission wavelength at 590 nm. The final measured fluorescent strength of the experimental group was obtained by deducting the measured fluorescence of the control group from the measured fluorescence of the experimental group. The standard H202 solution was used to prepare the standard H202 concentration-fluorescence curve. Based on this standard curve, we obtained the H202 concentration in CAP-stimulated medium or PBS. The triplicate experiments were independently repeated for three times

MDA-MB-231 cells = experiment: MTT cell viability of breast cancer cells cultured in CAP-stimulated media; assay type: cell-based, human; conditions: CAP treatment time 2 minutes, storage at −25° C. for 3 days, FIG. 5e
Procedure: All DMEM and PBS were mixed with 1% (v/v) antibiotic (penicillin and streptomycin) (Thermo Fisher Scientific) before any experiments were performed. […] All cancer cell lines were seeded with a confluence of 3×10^4 cells/mL and a volume of 100 μL in each well on a 96-well plate and were cultured for 6 hours in a complete media composed of Dulbecco's modified Eagle's medium supplemented with 10% (v/v) fetal bovine serum (Thermo Fisher Scientific). and 1% (v/v) antibiotic (penicillin and streptomycin) solution under standard cell culture conditions (a humidified, 37° C., 5% CO2 environment). In each experiment, 6 wells in a single column on the 96-well plate were seeded with cancer cells.
First, the initial culture medium which had been cultured cells for 6 hours was removed before this step. […] In each experiment, 6 wells in a single column on the 96-well plate were seeded with cancer cells. […]
The cancer cells in the 96-well plates were cultured in the 96-well plate under standard cell culture conditions (a humidified, 37° C., 5% CO2 environment) for 3 days. […] The 96-well plate filled with hydrochloric acid containing isopropanol solution was then read by a Hybrid Technology HI microplate reader (BioTek Instruments, Winooski, VT) at a 570 nm of absorbance. […] The average value of measured cell viability from 6 wells was regarded as the cell viability measured from one independent experiment. […]

| SMILES | effect of the component on H2O2 degradation in CAP-stimulated PBS during freezing storage [1] | effect of the component on H202 degradation in CAP-stimulated PBS-based solution [1] | effect of the appearance of the component in DMEM on H2O2 during storage [1] | effect of the presence of the component in DMEM on H202 in PSM during storage [1] | effect of the appearance of the component in DMEM on the anti-cancer capacity of PSM (MDA-MB-231 cells) | effect of the component on H2O2 in CAP-stimulated PBS during storage [1] | effect of the component on H2O2 degradation in CAP-stimulated PBS during freezing storage ([1]; storage at −25° C., FIG. 5c) |
| --- | --- | --- | --- | --- | --- | --- | --- |
| N[C@@H](CS)C(=O)O [cysteine] | two most reactive components | most significant degradation | complete consumption of H2O2 | noticeable H202 degradation | significantly aggravates the degradation |  |  |
| NCCCC[C@H](N)C(=O)O [lysine] |  |  |  |  |  | inhibit the degradation | aggravate the degradation |
| CSCC[C@H](N)C(=O)O [methionine] | two most reactive components | most significant degradation | complete consumption of H2O2 | noticeable H202 degradation | significantly aggravates the degradation |  |  |
| N[C@@H](Cc1ccccc1)C(=O)O [phenylalanine] |  | noticeable degradation |  |  |  | noticeable H2O2 degradation |  |
| N[C@@H](Cc1c[nH]c2ccccc12)C(=O)O [tryptophan] | aggravate the degradation |  |  |  |  | inhibit the degradation |  |
| N[C@@H](Cc1ccc(O)cc1)C(=O)O [tyrosine] | aggravate the degradation |  |  |  |  |  |  |
